According to ChEMBL document CHEMBL2176989, “Design, synthesis, and pharmacological evaluation of piperidin-4-yl amino aryl sulfonamides: novel, potent, selective, orally active, and brain penetrant 5-HT₆ receptor antagonists” (J Med Chem, 2012):
pEC50, pIC50, pKi: −log10 of the molar value. Active and inactive are the calls of the source. No cut-off for these calls is given here.

Tests used:
[1] = test system: Rattus norvegicus; experiment: Procognitive activity in Wistar rat assessed as increase in acetylcholine level in medial prefrontal cortex at 10 mg/kg, sc administered as an acute dose measured up to 4 hrs by brain microdialysis method; assay type: functional, organism-based; design: dose 10 mg/kg
[2] = test system: Rattus norvegicus; experiment: Procognitive activity in Wistar rat assessed as reversal of time delay-induced memory deficit at 1 to 10 mg/kg, po by object recognition test; assay type: functional, organism-based
[3] = Oral bioavailability in fasted beagle dog at 3 mg/kg; assay type: ADME, organism-based, Canis lupus familiaris; details: in vivo
[4] = AUC (0 to 24 hrs) in fasted beagle dog at 3 mg/kg, po; assay type: ADME, organism-based, Canis lupus familiaris; design: time < 24 hr, dose 3 mg/kg, route oral; details: plasma
[5] = Cmax in fasted beagle dog at 3 mg/kg, po; assay type: ADME, organism-based, Canis lupus familiaris; design: dose 3 mg/kg, route oral; details: in vivo
[6] = Tmax in fasted beagle dog at 3 mg/kg, po; assay type: ADME, organism-based, Canis lupus familiaris; design: dose 3 mg/kg, route oral; details: in vivo
[7] = Oral bioavailability in fasted Wistar rat at 5 mg/kg; assay type: ADME, organism-based; details: in vivo
[8] = AUC (0 to 24 hrs) in fasted Wistar rat at 5 mg/kg, po; assay type: ADME, organism-based; design: time < 24 hr, dose 5 mg/kg, route oral; details: plasma
[9] = Cmax in fasted Wistar rat at 5 mg/kg, po; assay type: ADME, organism-based; design: dose 5 mg/kg, route oral; details: in vivo
[10] = Tmax in fasted Wistar rat at 5 mg/kg, po; assay type: ADME, organism-based; design: dose 5 mg/kg, route oral; details: in vivo
[11] = Clearance in beagle dog at 1 mg/kg, iv; assay type: ADME, organism-based, Canis lupus familiaris; design: dose 1 mg/kg, route intravenous; details: in vivo
[12] = Apparent volume of distribution in beagle dog at 1 mg/kg, iv; assay type: ADME, organism-based, Canis lupus familiaris; design: dose 1 mg/kg, route intravenous; details: in vivo, read-out: Vz
[13] = AUC (0 to 24 hrs) in beagle dog at 1 mg/kg, iv; assay type: ADME, organism-based, Canis lupus familiaris; design: time < 24 hr, dose 1 mg/kg, route intravenous; details: plasma
[14] = Clearance in Wistar rat at 5 mg/kg, iv; assay type: ADME, organism-based; design: dose 5 mg/kg, route intravenous; details: in vivo
[15] = AUC (0 to 24 hrs) in Wistar rat at 5 mg/kg, iv; assay type: ADME, organism-based; design: time < 24 hr, dose 5 mg/kg, route intravenous; details: plasma
[16] = molecular target: T1, 5-hydroxytryptamine receptor 1A (Homo sapiens, UniProt P08908); experiment: Binding affinity to 5HT1A receptor
T1 sequence (P08908 whole entry): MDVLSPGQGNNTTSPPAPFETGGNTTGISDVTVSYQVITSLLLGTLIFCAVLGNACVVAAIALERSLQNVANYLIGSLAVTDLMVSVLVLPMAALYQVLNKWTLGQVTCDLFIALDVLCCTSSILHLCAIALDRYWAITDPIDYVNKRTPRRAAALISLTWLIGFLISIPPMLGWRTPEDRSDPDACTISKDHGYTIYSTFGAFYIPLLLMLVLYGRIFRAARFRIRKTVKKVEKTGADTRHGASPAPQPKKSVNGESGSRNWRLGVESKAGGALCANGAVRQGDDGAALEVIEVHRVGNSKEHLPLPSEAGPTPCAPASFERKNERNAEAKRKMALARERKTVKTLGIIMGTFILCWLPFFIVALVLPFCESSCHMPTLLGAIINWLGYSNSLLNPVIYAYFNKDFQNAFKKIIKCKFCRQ

[17] = molecular target: 5-hydroxytryptamine receptor 4 (Homo sapiens, UniProt Q13639); experiment: Binding affinity to 5HT4 receptor
[18] = molecular target: T2, 5-hydroxytryptamine receptor 3A (Homo sapiens, UniProt P46098); experiment: Binding affinity to 5HT3 receptor
T2 sequence (P46098 whole entry): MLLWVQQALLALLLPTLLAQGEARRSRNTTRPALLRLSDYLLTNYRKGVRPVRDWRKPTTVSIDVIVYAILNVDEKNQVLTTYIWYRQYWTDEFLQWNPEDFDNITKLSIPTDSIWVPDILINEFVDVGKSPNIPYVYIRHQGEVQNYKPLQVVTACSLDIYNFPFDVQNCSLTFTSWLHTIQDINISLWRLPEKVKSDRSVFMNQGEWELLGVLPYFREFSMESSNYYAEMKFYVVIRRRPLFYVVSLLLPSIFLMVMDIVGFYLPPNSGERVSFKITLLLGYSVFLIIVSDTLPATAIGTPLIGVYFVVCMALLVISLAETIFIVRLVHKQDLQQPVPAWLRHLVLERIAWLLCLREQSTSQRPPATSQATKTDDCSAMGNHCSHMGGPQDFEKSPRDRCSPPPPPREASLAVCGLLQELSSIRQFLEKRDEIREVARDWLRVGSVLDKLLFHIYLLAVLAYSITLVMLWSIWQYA

[19] = molecular target: Sodium-dependent dopamine transporter (Homo sapiens, UniProt Q01959); experiment: Binding affinity to dopamine transporter
[20] = molecular target: Sodium-dependent serotonin transporter (Homo sapiens, UniProt P31645); experiment: Binding affinity to SERT
[21] = molecular target: Histamine H1 receptor (Homo sapiens, UniProt P35367); experiment: Binding affinity to histamine H1 receptor
[22] = molecular target: D(2) dopamine receptor (Homo sapiens, UniProt P14416); experiment: Binding affinity to dopamine D2 receptor
[23] = molecular target: 5-hydroxytryptamine receptor 7 (Homo sapiens, UniProt P34969); experiment: Binding affinity to 5HT7 receptor
[24] = molecular target: T3, 5-hydroxytryptamine receptor 2C (Homo sapiens, UniProt P28335); experiment: Binding affinity to 5HT2C receptor
T3 sequence (P28335 whole entry): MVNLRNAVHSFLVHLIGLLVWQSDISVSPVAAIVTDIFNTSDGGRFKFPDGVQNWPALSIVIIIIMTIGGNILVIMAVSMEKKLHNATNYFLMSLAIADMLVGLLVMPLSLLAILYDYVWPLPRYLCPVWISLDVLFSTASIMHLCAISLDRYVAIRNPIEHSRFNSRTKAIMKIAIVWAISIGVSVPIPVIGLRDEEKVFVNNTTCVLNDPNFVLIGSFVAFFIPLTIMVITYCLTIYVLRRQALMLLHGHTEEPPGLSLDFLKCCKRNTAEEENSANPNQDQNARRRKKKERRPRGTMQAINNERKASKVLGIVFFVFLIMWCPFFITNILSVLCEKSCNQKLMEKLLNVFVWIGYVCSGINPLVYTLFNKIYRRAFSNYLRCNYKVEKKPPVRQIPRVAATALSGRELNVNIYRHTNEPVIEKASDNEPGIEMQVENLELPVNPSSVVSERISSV

[25] = molecular target: 5-hydroxytryptamine receptor 2A (Homo sapiens, UniProt P28223); experiment: Binding affinity to 5HT2A receptor
[26] = Ratio of drug uptake in brain to plasma in Wistar rat at 10 mg/kg, po after 1 hr; assay type: ADME, organism-based; design: dose 10 mg/kg, route oral; details: read-out: BPR
[27] = molecular target: 5-hydroxytryptamine receptor 6 (Homo sapiens) (UniProt P50406); experiment: Antagonist activity at human recombinant 5HT6 receptor expressed in CHO cells assessed as inhibition of 5HT-induced luciferase activity after 4 hrs by reporter gene assay relative to control; assay type: functional, cell-based
[28] = molecular target: 5-hydroxytryptamine receptor 6 (Homo sapiens) (UniProt P50406); experiment: Antagonist activity at human recombinant 5HT6 receptor expressed in CHO cells assessed as inhibition of 5HT-induced luciferase activity after 4 hrs by reporter gene assay; assay type: functional, cell-based
[29] = molecular target: Cytochrome P450 3A4 (Homo sapiens, UniProt P08684); experiment: Inhibition of CYP3A4 in human liver microsomes using midazolam as substrate after 5 mins by LC-MS/MS analysis in presence of NADPH
[30] = Drug metabolism in human liver microsomes at 2.5 uM at 30 mins by LC-MS/MS analysis; assay type: ADME, Microsome; details: read-out: Drug metabolism
[31] = molecular target: Cytochrome P450 2D6 (Homo sapiens, UniProt P10635); experiment: Inhibition of CYP2D6 in human liver microsomes using dextromethorphan as substrate after 10 mins by LC-MS/MS analysis in presence of NADPH
Sequence of Cytochrome P450 2D6 (P10635 whole entry): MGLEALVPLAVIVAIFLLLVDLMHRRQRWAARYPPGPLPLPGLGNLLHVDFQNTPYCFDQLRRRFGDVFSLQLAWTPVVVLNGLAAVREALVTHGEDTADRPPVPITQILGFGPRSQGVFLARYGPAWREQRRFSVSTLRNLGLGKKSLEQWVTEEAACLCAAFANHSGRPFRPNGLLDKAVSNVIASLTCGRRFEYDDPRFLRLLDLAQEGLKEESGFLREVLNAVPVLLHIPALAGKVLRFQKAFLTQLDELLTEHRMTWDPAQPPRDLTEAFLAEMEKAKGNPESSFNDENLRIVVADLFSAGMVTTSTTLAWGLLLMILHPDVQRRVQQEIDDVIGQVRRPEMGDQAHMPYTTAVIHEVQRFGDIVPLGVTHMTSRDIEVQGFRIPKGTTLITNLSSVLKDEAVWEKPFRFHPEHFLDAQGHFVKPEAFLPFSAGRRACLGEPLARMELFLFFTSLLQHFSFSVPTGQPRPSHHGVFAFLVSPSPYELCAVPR

Sequence of 5-hydroxytryptamine receptor 6 (Homo sapiens) (P50406 whole entry): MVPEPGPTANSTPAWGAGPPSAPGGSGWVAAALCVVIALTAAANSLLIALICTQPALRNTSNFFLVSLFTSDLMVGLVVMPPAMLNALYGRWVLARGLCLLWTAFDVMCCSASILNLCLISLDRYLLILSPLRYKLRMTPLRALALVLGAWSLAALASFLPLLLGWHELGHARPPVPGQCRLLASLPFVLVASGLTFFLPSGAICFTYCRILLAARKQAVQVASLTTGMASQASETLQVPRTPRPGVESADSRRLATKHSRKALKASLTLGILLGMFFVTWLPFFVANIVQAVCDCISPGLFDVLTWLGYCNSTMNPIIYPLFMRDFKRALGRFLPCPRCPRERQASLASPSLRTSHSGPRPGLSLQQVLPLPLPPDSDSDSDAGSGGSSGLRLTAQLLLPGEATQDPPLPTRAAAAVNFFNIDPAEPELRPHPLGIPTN
Sequence of 5-hydroxytryptamine receptor 4 (Q13639 whole entry): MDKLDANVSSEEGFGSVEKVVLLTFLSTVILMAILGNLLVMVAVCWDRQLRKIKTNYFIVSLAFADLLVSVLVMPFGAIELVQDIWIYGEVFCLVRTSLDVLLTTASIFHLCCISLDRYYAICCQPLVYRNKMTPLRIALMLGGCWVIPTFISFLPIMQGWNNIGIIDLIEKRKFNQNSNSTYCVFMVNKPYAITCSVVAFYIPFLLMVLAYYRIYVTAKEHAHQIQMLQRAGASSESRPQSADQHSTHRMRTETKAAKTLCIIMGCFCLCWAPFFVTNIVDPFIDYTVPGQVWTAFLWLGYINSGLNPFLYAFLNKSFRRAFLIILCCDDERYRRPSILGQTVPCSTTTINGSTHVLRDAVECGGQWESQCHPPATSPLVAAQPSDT
Sequence of D(2) dopamine receptor (P14416 whole entry): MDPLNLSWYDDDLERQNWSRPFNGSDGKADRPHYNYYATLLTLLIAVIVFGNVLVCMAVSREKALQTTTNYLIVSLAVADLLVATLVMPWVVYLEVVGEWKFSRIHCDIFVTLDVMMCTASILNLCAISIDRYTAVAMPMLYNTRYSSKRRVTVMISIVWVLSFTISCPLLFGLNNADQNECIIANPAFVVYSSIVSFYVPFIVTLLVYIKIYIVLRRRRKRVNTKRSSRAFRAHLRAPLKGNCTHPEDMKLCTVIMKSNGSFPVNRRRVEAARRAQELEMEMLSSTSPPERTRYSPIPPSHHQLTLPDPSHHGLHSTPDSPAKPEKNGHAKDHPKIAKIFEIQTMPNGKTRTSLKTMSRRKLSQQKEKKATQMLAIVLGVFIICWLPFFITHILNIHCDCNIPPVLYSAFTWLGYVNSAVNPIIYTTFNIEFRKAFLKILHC
Sequence of Sodium-dependent dopamine transporter (Q01959 whole entry): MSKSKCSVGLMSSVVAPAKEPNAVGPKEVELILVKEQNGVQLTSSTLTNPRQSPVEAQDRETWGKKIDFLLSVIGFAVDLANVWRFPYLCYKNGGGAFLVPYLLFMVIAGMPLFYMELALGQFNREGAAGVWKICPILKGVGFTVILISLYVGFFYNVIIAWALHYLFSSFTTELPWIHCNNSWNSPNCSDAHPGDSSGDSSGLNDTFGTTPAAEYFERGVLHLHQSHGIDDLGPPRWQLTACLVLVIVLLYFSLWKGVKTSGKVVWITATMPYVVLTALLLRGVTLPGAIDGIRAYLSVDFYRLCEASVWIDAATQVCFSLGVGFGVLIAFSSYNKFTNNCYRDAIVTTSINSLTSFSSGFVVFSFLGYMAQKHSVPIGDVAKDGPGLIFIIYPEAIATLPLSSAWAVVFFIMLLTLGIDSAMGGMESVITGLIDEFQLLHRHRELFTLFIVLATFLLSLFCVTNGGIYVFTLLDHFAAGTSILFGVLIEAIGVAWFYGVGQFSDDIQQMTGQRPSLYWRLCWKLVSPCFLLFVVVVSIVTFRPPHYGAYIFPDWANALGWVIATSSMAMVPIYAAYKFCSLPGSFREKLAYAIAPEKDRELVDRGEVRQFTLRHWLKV
Sequence of Cytochrome P450 3A4 (P08684 whole entry): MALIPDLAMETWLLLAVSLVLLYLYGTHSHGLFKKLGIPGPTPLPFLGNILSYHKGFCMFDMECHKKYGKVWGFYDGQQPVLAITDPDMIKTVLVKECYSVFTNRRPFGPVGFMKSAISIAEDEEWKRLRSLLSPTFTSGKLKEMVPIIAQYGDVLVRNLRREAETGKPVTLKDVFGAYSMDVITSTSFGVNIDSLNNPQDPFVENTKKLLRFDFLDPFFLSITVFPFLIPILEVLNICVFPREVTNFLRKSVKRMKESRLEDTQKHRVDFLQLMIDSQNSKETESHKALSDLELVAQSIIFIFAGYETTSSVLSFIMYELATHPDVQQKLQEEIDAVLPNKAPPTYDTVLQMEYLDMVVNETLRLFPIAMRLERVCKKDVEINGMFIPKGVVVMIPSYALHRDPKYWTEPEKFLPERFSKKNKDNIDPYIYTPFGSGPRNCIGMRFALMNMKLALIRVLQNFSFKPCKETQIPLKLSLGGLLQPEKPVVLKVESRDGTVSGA
Sequence of Histamine H1 receptor (P35367 whole entry): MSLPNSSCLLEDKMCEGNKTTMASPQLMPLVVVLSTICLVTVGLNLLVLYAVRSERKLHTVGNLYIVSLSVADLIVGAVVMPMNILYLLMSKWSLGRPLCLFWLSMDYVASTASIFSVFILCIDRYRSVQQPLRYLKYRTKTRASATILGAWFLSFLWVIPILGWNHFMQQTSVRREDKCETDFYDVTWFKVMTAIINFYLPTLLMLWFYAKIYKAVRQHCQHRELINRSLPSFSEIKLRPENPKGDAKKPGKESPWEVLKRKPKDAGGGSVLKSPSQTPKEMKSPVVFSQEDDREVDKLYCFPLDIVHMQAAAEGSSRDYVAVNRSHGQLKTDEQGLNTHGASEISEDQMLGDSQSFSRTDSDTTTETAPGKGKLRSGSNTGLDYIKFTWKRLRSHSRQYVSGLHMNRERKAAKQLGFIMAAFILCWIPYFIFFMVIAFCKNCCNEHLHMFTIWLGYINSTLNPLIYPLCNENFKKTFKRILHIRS
Sequence of Sodium-dependent serotonin transporter (P31645 whole entry): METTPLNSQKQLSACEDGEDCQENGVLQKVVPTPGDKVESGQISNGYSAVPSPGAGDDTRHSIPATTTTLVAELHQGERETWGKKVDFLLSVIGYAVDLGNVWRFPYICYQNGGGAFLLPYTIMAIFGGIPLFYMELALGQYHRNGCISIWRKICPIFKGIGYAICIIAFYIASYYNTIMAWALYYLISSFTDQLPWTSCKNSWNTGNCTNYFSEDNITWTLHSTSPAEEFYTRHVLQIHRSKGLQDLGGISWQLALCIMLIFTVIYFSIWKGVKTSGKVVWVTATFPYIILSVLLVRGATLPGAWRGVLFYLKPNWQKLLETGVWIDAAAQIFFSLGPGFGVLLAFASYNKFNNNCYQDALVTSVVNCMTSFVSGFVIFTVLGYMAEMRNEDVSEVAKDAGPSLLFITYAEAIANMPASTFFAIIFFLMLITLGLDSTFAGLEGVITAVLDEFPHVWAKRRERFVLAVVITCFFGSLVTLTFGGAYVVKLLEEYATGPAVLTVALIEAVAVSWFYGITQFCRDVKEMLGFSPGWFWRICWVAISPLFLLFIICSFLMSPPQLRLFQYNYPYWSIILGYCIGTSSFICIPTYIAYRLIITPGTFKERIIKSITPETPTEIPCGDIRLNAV
Sequence of 5-hydroxytryptamine receptor 7 (P34969 whole entry): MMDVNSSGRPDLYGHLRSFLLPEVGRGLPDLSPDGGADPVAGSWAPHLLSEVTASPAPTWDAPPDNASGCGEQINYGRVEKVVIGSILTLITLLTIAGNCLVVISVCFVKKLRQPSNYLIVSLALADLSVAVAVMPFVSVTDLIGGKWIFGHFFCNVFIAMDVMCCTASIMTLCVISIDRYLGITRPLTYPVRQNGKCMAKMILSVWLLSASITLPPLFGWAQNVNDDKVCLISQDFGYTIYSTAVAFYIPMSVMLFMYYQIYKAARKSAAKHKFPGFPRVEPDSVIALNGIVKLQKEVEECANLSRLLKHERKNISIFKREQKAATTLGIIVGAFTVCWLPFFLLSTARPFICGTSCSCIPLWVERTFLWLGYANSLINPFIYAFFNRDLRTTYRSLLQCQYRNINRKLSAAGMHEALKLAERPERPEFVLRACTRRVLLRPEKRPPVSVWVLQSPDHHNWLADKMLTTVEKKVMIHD
Sequence of 5-hydroxytryptamine receptor 2A (P28223 whole entry): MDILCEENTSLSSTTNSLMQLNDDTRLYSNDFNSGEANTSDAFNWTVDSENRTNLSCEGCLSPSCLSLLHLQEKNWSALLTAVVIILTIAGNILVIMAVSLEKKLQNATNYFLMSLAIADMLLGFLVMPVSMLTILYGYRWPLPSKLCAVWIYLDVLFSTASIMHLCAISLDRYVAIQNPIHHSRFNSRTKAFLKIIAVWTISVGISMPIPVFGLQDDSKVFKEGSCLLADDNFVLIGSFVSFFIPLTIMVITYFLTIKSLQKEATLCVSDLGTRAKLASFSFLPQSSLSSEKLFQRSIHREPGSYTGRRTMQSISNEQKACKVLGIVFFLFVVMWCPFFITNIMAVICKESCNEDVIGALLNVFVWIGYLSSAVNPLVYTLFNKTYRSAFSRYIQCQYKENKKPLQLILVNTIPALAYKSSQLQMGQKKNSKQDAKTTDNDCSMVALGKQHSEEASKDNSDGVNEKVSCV

## COc1ccc(S(=O)(=O)n2cc(C)c3cc(Cl)cnc32)cc1NC1CCN(C)CC1
[1]
  Activity: Active
[2]
  Activity: Active
[3]
  bioavailability: 92%
[4]
  AUC(0-t) at 24 h: 3630 ng·h/mL
[5]
  Cmax: 549 ng/mL
[6]
  Tmax: 1.7 h
[7]
  bioavailability: 29%
[8]
  AUC(0-t) at 24 h: 389 ng·h/mL
[9]
  Cmax: 156 ng/mL
[10]
  Tmax: 1 h
[11]
  clearance: 12 mL/min/kg
[12]
  Vd: 2.1 L/kg
[13]
  AUC(0-t) at 24 h: 1400 ng·h/mL
[14]
  clearance: 64 mL/min/kg
[15]
  AUC(0-t) at 24 h: 1310 ng·h/mL
[16]
  pEC50: < 5.00
[17]
  pEC50: < 5.00
[18]
  pIC50: < 5.00
[19]
  pKi: 5.49
[20]
  pKi: < 5.00
[21]
  pKi: 6.23
[22]
  pKi: 5.74
[23]
  pKi: 5.71
[24]
  pKi: 5.65
[25]
  pKi: 5.62
[26]
  Kp at 1 h: 0.9
[27]
  Imax: 100%
[28]
  Kb: 0.04 nM
[29]
  pIC50: 5.00
[30]
  metabolised at 0.5 h, 2.5 µM: 72%
[31]
  pIC50: < 4.35
